According to patent US9169268B2, “Use of 7-alkoxy fangchinoline compounds in preventing, alleviating and/or treating depression” (Peking University, priority 2012, dated 2015):

Tests used:
GSK-3β = GSK-3β (Homo sapiens, UniProt P49841); assay: GSK-3β activity assay (Z′-LYTE); format: biochemical; settings: n = 3; read-out: Mean EC50 in the inhibition of GSK-3β activity
Procedure: The GSK-3β phosphorylation level was determined by using a Z′-LYTE assay (Life Technologies). The assay was performed in a 384-well plate. The wells of the testing plate were divided into blank control wells (without the enzyme), enzyme control wells (without the testing substance), and testing wells (with the enzyme and the testing substance at various concentrations). The inhibition rate of the testing substance is expressed as: inhibition %=(E−S)/(E−B)×100, wherein E is the average emission ratio of enzyme control wells; B is the average emission ratio of blank control wells; S is the emission ratio of the testing sample wells. The median effective concentration of each compound (EC50 μM) was calculated by using the resultant inhibition rate of each sample at various concentrations.

[1] = test system: chronic unpredictable stress (CUS) model in rats; assay: Sucrose solution preference in CUS model in rats; format: in vivo; settings: 7 days
Procedure: (§1) The chronic unpredictable stress model is usually used as a depression model. The experimental method is as follows. Stimulation includes forced swimming (10° C., 6 min), tail clamping (1 cm from the tail tip, 1 min), water deprivation (24 h), fasting (24 h), isolated housing (24 h), tail suspension (1 h), immobility (2 h), high-speed horizontal oscillation (120 times/min, 1 h), foot shock for 45 minutes (mean 1 mA, time course 1 s, once/min). These stressors were randomly scheduled over a one-week period and repeated throughout the 23-day experiment. The non-stress control group was housed under normal conditions. Time: between 9:00 a.m. and 2:00 p.m. Since Day 15, the animals in each group were daily intragastrically administered with the subject medicament and double distilled water based on body weight (blank group and CUS model group) respectively, 60 minutes before the stress. […] Behavior and sleep electroencephalogram analyses were carried out on Day 22-23 of the stress. On Day 21, 60 minutes after the final administration, a sucrose solution intake test was carried out and sleep electroencephalogram was recorded simultaneously. On Day 22, EPM and forced swimming tests were carried out.

[2] = test system: chronic unpredictable stress (CUS) model in rats; assay: Autonomous movement in CUS model in rats; format: in vivo; settings: 7 days
Procedure: as §1

[3] = Serum AST and ALT in mice after 14 days of intragastric administration; format: in vivo; settings: mouse, in vivo, 60 mg/kg/day
Procedure: Blood was collected from epicanthal, stood at room temperature for about 2 hours, and centrifuged for 12 minutes at 3000 r/min after coagulation. The serum was removed and centrifuged again. Alanine transaminase (ALT) and aspartate transaminase (AST) levels were determined

[4] = test system: chronic unpredictable stress (CUS) model in rats; assay: Elevated plus-maze (EPM) anxiety test in CUS model in rats; format: in vivo
Procedure: as §1

[5] = test system: chronic unpredictable stress (CUS) model in rats; assay: Forced swimming test in chronic unpredictable stress (CUS) model in rats; format: in vivo; settings: 7 days
Procedure: as §1

[6] = test system: chronic unpredictable stress (CUS) model in rats; assay: Depression-like behaviors overall in CUS model in rats (forced swimming, sucrose preference, autonomous mobility); format: in vivo; settings: doses of 30 and 60 mg/kg
Source text: The chronic unpredictable stress model is usually used as a depression model. The experimental method is as follows. […] These stressors were randomly scheduled over a one-week period and repeated throughout the 23-day experiment. The non-stress control group was housed under normal conditions. Time: between 9:00 a.m. and 2:00 p.m. Since Day 15, the animals in each group were daily intragastrically administered with the subject medicament and double distilled water based on body weight (blank group and CUS model group) respectively, 60 minutes before the stress. Imipramine (intraperitoneally, IP) was adopted as a positive control. Behavior and sleep electroencephalogram analyses were carried out on Day 22-23 of the stress. On Day 21, 60 minutes after the final administration, a sucrose solution intake test was carried out and sleep electroencephalogram was recorded simultaneously. On Day 22, EPM and forced swimming tests were carried out. Result 1: […]

Chain of GSK-3β (P49841 whole entry): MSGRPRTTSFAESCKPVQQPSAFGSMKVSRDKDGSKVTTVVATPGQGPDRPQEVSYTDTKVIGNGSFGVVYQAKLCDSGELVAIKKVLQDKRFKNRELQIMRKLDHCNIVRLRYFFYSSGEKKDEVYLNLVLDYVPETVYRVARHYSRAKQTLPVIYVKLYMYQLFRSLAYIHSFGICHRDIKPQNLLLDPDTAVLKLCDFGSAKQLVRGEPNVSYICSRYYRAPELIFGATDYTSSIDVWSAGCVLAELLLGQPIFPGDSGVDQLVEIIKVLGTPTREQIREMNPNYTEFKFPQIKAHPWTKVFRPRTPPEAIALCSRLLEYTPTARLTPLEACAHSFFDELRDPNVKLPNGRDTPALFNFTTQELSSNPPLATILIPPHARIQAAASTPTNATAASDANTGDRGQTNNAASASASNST

Molecule	EC50 (GSK-3β)	melting point	Sucrose solution preference ([1]; 7.5 mg/kg intragastric daily)	Sucrose solution preference ([1]; 15 mg/kg intragastric daily)	Sucrose solution preference ([1]; 30 mg/kg intragastric daily)	Autonomous movement Distance ([2]; 7.5 mg/kg intragastric daily)	Autonomous movement Speed ([2]; 7.5 mg/kg intragastric daily)	Autonomous movement Distance ([2]; 15 mg/kg intragastric daily)	Autonomous movement Speed ([2]; 15 mg/kg intragastric daily)	Autonomous movement Distance ([2]; 30 mg/kg intragastric daily)	Autonomous movement Speed ([2]; 30 mg/kg intragastric daily)	ALT [3]	AST [3]	AST/ALT [3]	Percentage of entries into open arms relative to total entries into arms ([4]; 7.5 mg/kg intragastric daily)	Percentage of residence time in open arms ([4]; 7.5 mg/kg intragastric daily)	Percentage of entries into open arms relative to total entries into arms ([4]; 15 mg/kg intragastric daily)	Percentage of residence time in open arms ([4]; 15 mg/kg intragastric daily)	Percentage of entries into open arms relative to total entries into arms ([4]; 30 mg/kg intragastric daily)	Percentage of residence time in open arms ([4]; 30 mg/kg intragastric daily)	also measured
5-bromo-7-ethoxy fangchinoline [Compound 4]	–	–	79.2 ± 3.4^##,$$ %	81.5 ± 4.7^##,$$ %	93.6 ± 3.2^##,$$ %	13257.21 ± 756.36^##,$$ mm	44.19 ± 2.64^##,$$ mm/second	13615.71 ± 743.43^##,$$ mm	45.39 ± 4.02^##,$$ mm/second	14362.26 ± 771.52^##,$$ mm	47.87 ± 5.36^##,$$ mm/second	–	–	–	54.2 ± 2.6^##,$ %	66.2 ± 3.4^##,$$ %	55.3 ± 4.0^##,$ %	69.5 ± 4.2^##,$$ %	59.7 ± 5.3^##,$$ %	68.6 ± 3.2^##,$$ %	Forced swimming Immobility time ([5]; 7.5 mg/kg intragastric daily): 134.3 ± 4.4^##,$$ seconds; Forced swimming Immobility time ([5]; 15 mg/kg intragastric daily): 96.1 ± 3.74^##,$$ seconds; Forced swimming Immobility time ([5]; 30 mg/kg intragastric daily): 60.5 ± 5.3^##,$$ seconds
CCCCOc1c(OC)cc2c3c1Oc1cc4c(cc1OC)CCN(C)C4Cc1ccc(cc1)Oc1cc(ccc1OC)CC3N(C)CC2 (stereo not drawn) [Compound 7, 7-butoxy fangchinoline]	2.33 µM	155 to 156 °C	70.7 ± 4.1 %	87.1 ± 3.5 %	86.3 ± 3.4^##,$$ %	8823.36 ± 673.14^##,$$ mm	29.41 ± 2.64^##,$$ mm/second	9586.43 ± 756.75^##,$$ mm	31.95 ± 4.02^##,$$ mm/second	11768.25 ± 903.41^##,$$ mm	39.23 ± 5.36^##,$$ mm/second	82.4 ± 17.9 U/L	93.6 ± 17.8 U/L	1.14 ± 0.20	43.4 ± 2.6 %	54.7 ± 4.1^##,$$ %	47.9 ± 4.0 %	62.1 ± 3.4^##,$$ %	54.3 ± 5.6^##,$ %	61.5 ± 3.0^##,$$ %	–
COc1ccc2cc1Oc1ccc(cc1)CC1c3cc(c(OC)cc3CCN1C)Oc1c(OC)c(OC)c(OC)c3c1C(C2)N(C)CC3 (stereo not drawn) [5,7-dimethoxy-fangchinoline, reference compound]	> 10 µM	–	–	–	53.7 ± 4.8%	–	–	–	–	1189.64 ± 315.84 mm	3.97 ± 1.48 mm/second	–	–	–	–	–	–	–	38.9 ± 1.8%	43.2 ± 4.1%	Sucrose solution preference ([1]; 60 mg/kg intragastric daily): 55.3 ± 4.2%; Autonomous movement Distance ([2]; 60 mg/kg intragastric daily): 936.47 ± 366.32 mm; Autonomous movement Speed ([2]; 60 mg/kg intragastric daily): 3.12 ± 1.42 mm/second; amelioration effect on depression-like behaviors [6]: no amelioration effect; Percentage of entries into open arms relative to total entries into arms ([4]; 60 mg/kg intragastric daily): 37.2 ± 1.4%; Percentage of residence time in open arms ([4]; 60 mg/kg intragastric daily): 42.8 ± 4.8%; anti-anxiety-like effect ([4]; doses of 30 and 60 mg/kg): no anti-anxiety-like effect
CCCOc1c(OC)cc2c3c1Oc1cc4c(cc1OC)CCN(C)C4Cc1ccc(cc1)Oc1cc(ccc1OC)CC3N(C)CC2 (stereo not drawn) [Compound 6, 7-propoxy fangchinoline]	1.68 µM	174.8 to 176.3 °C	79.45 ± 3.3 %	85.5 ± 3.6^##,$$ %	90.4 ± 4.3^##,$$ %	8940.78 ± 714.35^##,$$ mm	29.80 ± 2.64^##,$$ mm/second	11574.92 ± 732.36^##,$$ mm	38.58 ± 3.02^##,$$ mm/second	12566.27 ± 764.42^##,$$ mm	41.89 ± 4.36^##,$$ mm/second	92.3 ± 21.2 U/L	99.4 ± 21.1 U/L	1.08 ± 0.27	47.0 ± 2.6 %	59.4 ± 3.3^##,$$ %	50.5 ± 3.2 %	64.1 ± 3.6^##,$$ %	57.3 ± 4.6^##,$$ %	66.0 ± 4.2^##,$$ %	–

The next lines start with results.

EC50 (GSK-3β)	melting point	Molecule	Sucrose solution preference ([1]; 7.5 mg/kg intragastric daily)	Sucrose solution preference ([1]; 15 mg/kg intragastric daily)	Sucrose solution preference ([1]; 30 mg/kg intragastric daily)	Autonomous movement Distance ([2]; 7.5 mg/kg intragastric daily)	Autonomous movement Speed ([2]; 7.5 mg/kg intragastric daily)	Autonomous movement Distance ([2]; 15 mg/kg intragastric daily)	Autonomous movement Speed ([2]; 15 mg/kg intragastric daily)	Autonomous movement Distance ([2]; 30 mg/kg intragastric daily)	Autonomous movement Speed ([2]; 30 mg/kg intragastric daily)	ALT [3]	AST [3]	AST/ALT [3]	Percentage of entries into open arms relative to total entries into arms ([4]; 7.5 mg/kg intragastric daily)	Percentage of residence time in open arms ([4]; 7.5 mg/kg intragastric daily)	Percentage of entries into open arms relative to total entries into arms ([4]; 15 mg/kg intragastric daily)	Percentage of residence time in open arms ([4]; 15 mg/kg intragastric daily)	Percentage of entries into open arms relative to total entries into arms ([4]; 30 mg/kg intragastric daily)	Percentage of residence time in open arms ([4]; 30 mg/kg intragastric daily)	also measured
1.26 µM	186 to 188 °C	CCOc1c(OC)c(Br)c2c3c1Oc1cc4c(cc1OC)CCN(C)C4Cc1ccc(cc1)Oc1cc(c(Br)cc1OC)CC3N(C)CC2 (stereo not drawn) [Compound 5, 5,14-dibromo-7-ethoxy fangchinoline]	84.1 ± 3.3 %	86.0 ± 3.5^##,$$ %	91.5 ± 4.2^##,$$ %	13732.42 ± 732.45^##,$$ mm	45.77 ± 2.64^##,$$ mm/second	14003.63 ± 737.47^##,$$ mm	46.68 ± 4.02^##,$$ mm/second	14561.84 ± 807.52^##,$$ mm	48.54 ± 5.36^##,$$ mm/second	91.7 ± 15.5 U/L	101.5 ± 18.7 U/L	–	–	–	–	–	–	–	–
3.21 µM	–	COc1ccc2cc1Oc1ccc(cc1)CC1c3cc(c(OC)cc3CCN1C)Oc1c(OC)c(OC)c(Cl)c3c1C(C2)N(C)CC3 (stereo not drawn) [Compound 1, 5-chloro-7-methoxy fangchinoline]	69.6 ± 4.6 %	78.8 ± 4.0^##,$$ %	81.6 ± 3.7^##,$$ %	7581.17 ± 845.04^##,$$ mm	25.27 ± 2.38^##,$$ mm/second	9518.08 ± 704.12^##,$$ mm	31.73 ± 3.44^##,$$ mm/second	10347.64 ± 923.01^##,$$ mm	34.49 ± 3.75^##,$$ mm/second	80.9 ± 21.4 U/L	117.7 ± 16.1 U/L	1.45 ± 0.21	41.2 ± 2.3 %	53.6 ± 4.6^##,$$ %	46.7 ± 3.4 %	60.8 ± 4.0^##,$$ %	53.9 ± 3.5^##,$$ %	60.6 ± 3.7^##,$$ %	–
2.01 µM	187 to 189 °C	COc1cc(Br)c2cc1Oc1ccc(cc1)CC1c3cc(c(OC)cc3CCN1C)Oc1c(OC)c(OC)c(Br)c3c1C(C2)N(C)CC3 (stereo not drawn) [Compound 2, 5,14-dibromo-7-methoxy fangchinoline]	72.5 ± 3.0 %	89.0 ± 4.6^##,$$ %	88.5 ± 3.1^##,$$ %	9031.41 ± 639.33^##,$$ mm	30.10 ± 3.88^##,$$ mm/second	10116.74 ± 746.48^##,$$ mm	33.72 ± 4.02^##,$$ mm/second	12062.32 ± 903.42^##,$$ mm	40.21 ± 5.36^##,$$ mm/second	87.2 ± 24.7 U/L	108.4 ± 17.4 U/L	1.24 ± 0.26	45.1 ± 3.8 %	56.5 ± 3.0^##,$$ %	49.7 ± 4.0 %	63.6 ± 4.1^##,$$ %	56.2 ± 5.3^##,$$ %	64.5 ± 3.6^##,$$ %	–
